Tests used:
MCF-7 ESR1-Y537S = assay: Proliferation inhibition assay, MCF-7 ESR1-Y537S mutant cell line; assay type: cell-based; conditions: Homo sapiens, MCF7, 168 h, 7 days
Description: The tumor cell lines were cultured in an incubator at 37° C. with 5% CO2. Regular passaging was performed, and cells in the logarithmic growth phase were selected for plating.
• 1) Cells were stained with trypan blue and viable cells were counted. • 2) Cells were washed once with PBS and resuspended in RPMI 1640+10% FBS medium without phenol red. The concentration was adjusted to an appropriate one. • 3) 135 μL of the cell suspension per well was added to a culture plate, and cell-free culture medium was added to the blank control well. • 4) The plates were incubated overnight at 37° C. with 5% CO2 and 100% relative humidity. 3. Preparation of 10× Compound Working Solution and Treatment of Cells • 1) Preparation of 10× compound working solution: 199 μL of cell culture medium was added to V-bottom 96-well plates. From a 2000× compound storage plate, 1 μL of the compound was added to the 96-well plate containing cell culture medium. 1 μL of DMSO was added to vehicle control and blank control. […] The final concentration of DMSO was 0.05%. • 3) The 96-well cell plate was returned to the incubator for further culture, and cell viability was assessed after 7 days. […]
The inhibition rate (IR) of the compound was calculated using the following formula:
[formula] Inhibition rates for different concentrations of the compound were calculated in Excel. […]

[1] = molecular target: T1, Estrogen receptor α (ERα) (Homo sapiens, UniProt P03372); assay: ERα binding assay (radioactive ligand binding)
T1 construct: host or cells: insect Sf9 cells
T1 sequence (P03372 1-595): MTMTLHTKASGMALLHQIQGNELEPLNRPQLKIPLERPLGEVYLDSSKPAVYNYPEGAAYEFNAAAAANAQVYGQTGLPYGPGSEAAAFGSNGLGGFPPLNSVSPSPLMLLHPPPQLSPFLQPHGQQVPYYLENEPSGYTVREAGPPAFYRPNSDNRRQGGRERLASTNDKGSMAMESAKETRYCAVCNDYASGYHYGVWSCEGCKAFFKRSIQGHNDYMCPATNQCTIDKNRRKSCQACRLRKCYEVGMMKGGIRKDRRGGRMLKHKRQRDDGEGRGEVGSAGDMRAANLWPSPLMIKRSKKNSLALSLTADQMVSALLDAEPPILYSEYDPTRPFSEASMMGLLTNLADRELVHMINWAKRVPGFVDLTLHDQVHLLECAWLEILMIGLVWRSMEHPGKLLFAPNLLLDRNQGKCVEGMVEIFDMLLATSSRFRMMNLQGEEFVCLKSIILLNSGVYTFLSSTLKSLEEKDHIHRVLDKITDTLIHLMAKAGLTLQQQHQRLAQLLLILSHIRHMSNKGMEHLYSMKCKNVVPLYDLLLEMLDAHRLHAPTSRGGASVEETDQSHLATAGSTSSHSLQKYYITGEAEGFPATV
Description: (1) ERα Binding Assay: Assessment of the Activity of the Compound of Formula (I) Via Radioactive Ligand Binding Assay
The method employed in this study was adopted from scientific literature (Obourn, J. D. et al., Biochemistry, 1993, 32, 6229-6236).
The IC50 values were obtained using MathIQ™ software (ID Business Solutions Ltd., UK) employing a nonlinear, least-squares regression method. The presented inhibition constant (Ki) was calculated using the Cheng and Prusoff equation (Cheng, Y., Prusoff, W. H., Biochem. Pharmacol. 22:3099-3108, 1973) based on the experimentally determined IC50 of the test compound, the concentration of the radioactive ligand used in the assay, and the historical value of the ligand's KD (determined experimentally by Eurofins Panlabs, Inc.). As shown, the Hill coefficient (nH), which defines the slope of the competitive binding curve, was calculated using MathIQ™.

FCCCN1CC[C@H](Nc2cnc(C3=C(CC(F)(F)F)CCCc4c3ccc3[nH]nc(F)c43)cn2)C1 [Compound of formula (I)]
IC50 (MCF-7 ESR1-Y537S; read-out: Relative IC50): 11.2 nM
IC90 (MCF-7 ESR1-Y537S; read-out: Relative IC90): 101 nM
nH (Hill coefficient) [1]: 1.22
IC50 ([1]; 0.5 nM [3H] estradiol): 0.36 nM
Ki ([1]; Cheng and Prusoff equation): 0.1 nM
inhibition at 12.8 pM ([1]; concentration 12.8 pM, read-out: Inhibition rate (%)): -4%
inhibition at 64 pM ([1]; concentration 0.064 nM, read-out: Inhibition rate (%)): 9%
inhibition at 0.00032 µM ([1]; concentration 0.32 nM, read-out: Inhibition rate (%)): 48%
inhibition at 0.0016 µM ([1]; concentration 1.6 nM, read-out: Inhibition rate (%)): 84%
inhibition at 0.008 µM ([1]; concentration 8 nM, read-out: Inhibition rate (%)): 97%
inhibition at 0.04 µM ([1]; concentration 0.04 μM, read-out: Inhibition rate (%)): 98%
inhibition at 0.2 µM ([1]; concentration 0.2 μM, read-out: Inhibition rate (%)): 97%
inhibition at 1 µM ([1]; concentration 1 μM, read-out: Inhibition rate (%)): 97%

Reference: patent US12410155B2, “Salt form and crystal form of tetrahydrocyclohepta indazole compound” (Zhejiang Yangli Pharmaceutical Technology Co., Ltd., priority 2021, dated 2025)
